From US20220324835A1 (Nurix Therapeutics, Inc., priority 2018, published 2022)
Like-named read-outs stand apart in the source and are kept apart here.

Experiments:
Format in all cases: cell-based
primary human NK cells = experiment: NK cell activation assessed by cytokine secretion (coculture with K562 NucRed target cells); details: for fold induction at 0.625 µM: 0.625 μM compound; for fold induction at 2.5 µM: 2.5 μM compound
How it was run: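 Primary NK cells from donor PBMC, IL-2 (60 ng/mL) overnight, then Cbl-b inhibitor (e.g. 10, 1 or 0.1 μM; DMSO <0.1%) for 1 h before 6 h coculture with K562 NucRed at effector:target ratios such as 5:1, 1:1 or 1:5. Supernatant IFNγ, TNFα, MIP1β measured by ELISA or Luminex; fold change over inhibitor-free baseline, >2.0-fold positive.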

T-cell = experiment: CD25 cell surface staining on T-cells stimulated with anti-CD3 antibody alone (Biological Example 2); details: primary human total T-cells, baseline = anti-CD3/anti-CD28 stimulated cells without inhibitor, read-out: CD25 staining, Anti-CD3 stimulation, fold change over baseline; for fold induction at 1 µM: 1 μM compound; for fold induction at 8 µM: 8 μM compound
primary human B cells = experiment: B cell activation assay (CD69 on anti-IgM stimulated B cells); details: AUC of dose response curve (10 μM to 1 nM) of CD69 MFI normalized to DMSO control
How it was run: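 Negatively selected PBMC-derived B cells (>95% CD20+) treated with Cbl-b inhibitors from 10 μM to 1 nM (DMSO <0.5%) and stimulated with anti-IgM for 20 h at 37° C. CD69 MFI on CD20+ IgD+ cells by flow cytometry; dose-response AUC normalized to DMSO plus 2.5 μg/mL anti-IgM-F(ab′)2, binned A-D.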

[1] = K562, NK cells cocultured with K562 NucRed, 1:1 E/T, read-out: IFNγ secretion, fold change over baseline
[2] = K562, NK cells cocultured with K562 NucRed, 1:1 E/T, read-out: TNFα secretion, fold change over baseline
[3] = K562, NK cells cocultured with K562 NucRed, 1:1 E/T, 10 μM compound, read-out: IFNγ secretion, fold change over baseline
[4] = K562, NK cells cocultured with K562 NucRed, 1:1 E/T, 10 μM compound, read-out: TNFα secretion, fold change over baseline

SMILES | fold induction at 0.625 µM (primary human NK cells; [1]) | fold induction at 0.625 µM (primary human NK cells; [2]) | fold induction at 2.5 µM (primary human NK cells; [1]) | fold induction at 2.5 µM (primary human NK cells; [2]) | fold induction at 10 µM (primary human NK cells; [3]) | fold induction at 10 µM (primary human NK cells; [4]) | fold induction at 1 µM (T-cell) | fold induction at 8 µM (T-cell) | CD69 MFI AUC (primary human B cells) | other results
Cn1cnnc1CC1(c2cccc(N3Cc4c(cc(CN5CC[C@H](C#N)C5)cc4C(F)(F)F)C3=O)c2)COC1 [Compound 422, (S)-1-((2-(3-(3-((4-methyl-4H-1,2,4-triazol-3-yl)methyl)oxetan-3-yl)phenyl)-3-oxo-7-(trifluoromethyl)isoindolin-5-yl)methyl)pyrrolidine-3-carbonitrile] | 1.01 to 2 | 1.01 to 2 | 2.01 to 5 | 1.01 to 2 | 2.01 to 5 | 2.01 to 5 | > 1 | > 1 | C (C indicates 1.01-1.50) | –
Cn1cnnc1C(F)(F)[C@](C)(F)c1cccc(N2Cc3c(cc(C(=O)N4CC[C@H](O)C4)cc3C(F)(F)F)C2=O)c1 [Compound 438, 6-((S)-3-hydroxypyrrolidine-1-carbonyl)-2-(3-((R)-1,1,2-trifluoro-1-(4-methyl-4H-1,2,4-triazol-3-yl)propan-2-yl)phenyl)-4-(trifluoromethyl)isoindolin-1-one] | 1.01 to 2 | 1.01 to 2 | 1.01 to 2 | 1.01 to 2 | 2.01 to 5 | 1.01 to 2 | 0.801 to 1 | > 1 | A (A indicates ≤0.5) | fold induction at 1 µM (primary human NK cells; K562, 1:1 E/T, read-out: IFNγ secretion): < 1; fold induction at 1 µM (primary human NK cells; K562, 1:1 E/T, read-out: MIP1β secretion): < 1; fold induction at 1 µM (primary human NK cells; K562, 1:1 E/T, read-out: TNFα secretion): 1.01 to 2; fold induction at 10 µM (primary human NK cells; K562, 1:1 E/T, 10 μM, read-out: IFNγ secretion): < 1; fold induction at 10 µM (primary human NK cells; K562, 1:1 E/T, 10 μM, read-out: MIP1β secretion): < 1; fold induction at 10 µM (primary human NK cells; K562, 1:1 E/T, 10 μM, read-out: TNFα secretion): 1.01 to 2; fold induction at 1 µM (primary human NK cells; K562, 5:1 E/T, read-out: IFNγ secretion): < 1; fold induction at 1 µM (primary human NK cells; K562, 5:1 E/T, read-out: MIP1β secretion): < 1; fold induction at 1 µM (primary human NK cells; K562, 5:1 E/T, read-out: TNFα secretion): 1.01 to 2; fold induction at 10 µM (primary human NK cells; K562, 5:1 E/T, 10 μM, read-out: IFNγ secretion): 1.01 to 2; fold induction at 10 µM (primary human NK cells; K562, 5:1 E/T, 10 μM, read-out: MIP1β secretion): 1.01 to 2; fold induction at 10 µM (primary human NK cells; K562, 5:1 E/T, 10 μM, read-out: TNFα secretion): 1.01 to 2
Cn1cnnc1C(F)(F)[C@](C)(F)c1cccc(N2Cc3c(cc(N4CCNCC4)cc3C(F)(F)F)C2=O)c1 [Compound 442, (R)-6-(Piperazin-1-yl)-2-(3-(1,1,2-trifluoro-1-(4-methyl-4H-1,2,4-triazol-3-yl)propan-2-yl)phenyl)-4-(trifluoromethyl)isoindolin-1-one] | 2.01 to 5 | 2.01 to 5 | 2.01 to 5 | 2.01 to 5 | 2.01 to 5 | 1.01 to 2 | > 1 | 0.801 to 1 | B (B indicates 0.5-1.00) | –
Cn1cnnc1C(F)(F)[C@](C)(F)c1cccc(N2Cc3c(cc(CN4CC[C@@H](F)C4)cc3C(F)(F)F)C2=O)c1 [Compound 450] | 2.01 to 5 | 1.01 to 2 | > 5 | 2.01 to 5 | > 5 | 2.01 to 5 | > 1 | > 1 | C (C indicates 1.01-1.50) | –
COC1CN(Cc2cc3c(c(C(F)(F)F)c2)CN(c2cccc([C@@](C)(F)C(F)(F)c4nncn4C)c2)C3=O)C1 [Compound 452, (R)-6-((3-methoxyazetidin-1-yl)methyl)-2-(3-(1,1,2-trifluoro-1-(4-methyl-4H-1,2,4-triazol-3-yl)propan-2-yl)phenyl)-4-(trifluoromethyl)isoindolin-1-one] | > 5 | 1.01 to 2 | > 5 | 2.01 to 5 | > 5 | 2.01 to 5 | > 1 | > 1 | D (D indicates ≥1.51) | –
Cn1cnnc1C(F)(F)[C@](C)(F)c1cccc(N2Cc3c(cc(CN4CC[C@@H](C#N)C4)cc3C(F)(F)F)C2=O)c1 [Compound 455, (R)-1-((3-oxo-2-(3-((R)-1,1,2-trifluoro-1-(4-methyl-4H-1,2,4-triazol-3-yl)propan-2-yl)phenyl)-7-(trifluoromethyl)isoindolin-5-yl)methyl)pyrrolidine-3-carbonitrile] | > 5 | 1.01 to 2 | > 5 | 2.01 to 5 | > 5 | 2.01 to 5 | 0.801 to 1 | > 1 | C (C indicates 1.01-1.50) | –
C[C@H](Cc1nncn1C)c1cccc(NC(=O)c2cc3cc(N4CCNCC4)ccc3cn2)c1 [Compound 472, N-{3-[(2R)-1-(4-methyl-4H-1,2,4-triazol-3-yl)propan-2-yl]phenyl}-6-(piperazin-1-yl)isoquinoline-3-carboxamide] | < 1 | < 1 | 1.01 to 2 | < 1 | 2.01 to 5 | 1.01 to 2 | 0.801 to 1 | 0.801 to 1 | C (C indicates 1.01-1.50) | –
Cn1cnnc1CC1(c2cccc(NC(=O)c3cc(CN4CCC5(CC5)C4)cc(C4CC4)n3)c2)COC1 [Compound 519, 4-((5-azaspiro[2.4]heptan-5-yl)methyl)-6-cyclopropyl-N-(3-(3-((4-methyl-4H-1,2,4-triazol-3-yl)methyl)oxetan-3-yl)phenyl)picolinamide] | > 5 | > 5 | > 5 | 1.01 to 2 | > 5 | 2.01 to 5 | > 1 | – | D (D indicates ≥1.51) | –
Cn1cnnc1CC1(c2cccc(N3Cc4c(cc(CN5CCC6(CC6)C5)cc4C(F)(F)F)C3=O)c2)COC1 [Compound 520, 6-((5-azaspiro[2.4]heptan-5-yl)methyl)-2-(3-(3-((4-methyl-4H-1,2,4-triazol-3-yl)methyl)oxetan-3-yl)phenyl)-4-(trifluoromethyl)isoindolin-1-one] | > 5 | 2.01 to 5 | > 5 | > 5 | > 5 | 2.01 to 5 | > 1 | – | D (D indicates ≥1.51) | –
